Laboratory results from the supplement of paper PMC11424490.

What was measured:
Experiment in all cases: combination cScore with sotorasib (Bliss gap around IC50) (%PoC); higher = stronger additive effect
NCI-H2122 = test system: NCI-H2122
In short: (§1)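 After 24 h in 384-well plates (500 or 800 cells per well), NCI-H2122, NCI-H358 and SW837 cells received concentration matrices and grew for 72 h, except SW837, which grew for 144 h. CellTiter-Glo readings were scaled to vehicle wells and fitted with four-parameter curves. Each score is the averaged Bliss-independence difference (expected minus measured viability) over a region around both monotherapy IC50s, or at top concentrations when no IC50 was reached.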

SW837 = test system: SW837
In short: as §1

NCI-H358 = test system: NCI-H358
In short: as §1

Compound: Cc1nc(Nc2ncc(C(=O)Nc3c(C)cccc3Cl)s2)cc(N2CCN(CCO)CC2)n1 [Dasatinib] + C=CC(=O)N1CCN(c2nc(=O)n(-c3c(C)ccnc3C(C)C)c3nc(-c4c(O)cccc4F)c(F)cc23)[C@@H](C)C1 [sotorasib]
- combination cScore with sotorasib (NCI-H2122): 30.8
- combination cScore with sotorasib (SW837): 17.9
- combination cScore with sotorasib (NCI-H358): 9.3

Compound: COc1cccc2c1C(=O)c1c(O)c3c(c(O)c1C2=O)C[C@@](O)(C(C)=O)C[C@@H]3O[C@H]1C[C@H](N)[C@H](O)[C@H](C)O1 [Daunorubicin] + C=CC(=O)N1CCN(c2nc(=O)n(-c3c(C)ccnc3C(C)C)c3nc(-c4c(O)cccc4F)c(F)cc23)[C@@H](C)C1 [sotorasib]
- combination cScore with sotorasib (NCI-H2122): 18.1
- combination cScore with sotorasib (SW837): 5.95
- combination cScore with sotorasib (NCI-H358): 2.01

Compound: C[C@H](Nc1ncnc2nc[nH]c12)c1cc2cccc(Cl)c2c(=O)n1-c1ccccc1 [Duvelisib] + C=CC(=O)N1CCN(c2nc(=O)n(-c3c(C)ccnc3C(C)C)c3nc(-c4c(O)cccc4F)c(F)cc23)[C@@H](C)C1 [sotorasib]
- combination cScore with sotorasib (NCI-H2122): 14.2
- combination cScore with sotorasib (SW837): 18.6
- combination cScore with sotorasib (NCI-H358): 4.86

Compound: C#Cc1cccc(Nc2ncnc3cc(OCCOC)c(OCCOC)cc23)c1 [Erlotinib] + C=CC(=O)N1CCN(c2nc(=O)n(-c3c(C)ccnc3C(C)C)c3nc(-c4c(O)cccc4F)c(F)cc23)[C@@H](C)C1 [sotorasib]
- combination cScore with sotorasib (NCI-H2122): 27.4
- combination cScore with sotorasib (SW837): 23
- combination cScore with sotorasib (NCI-H358): 10.2

Compound: COc1cc(Nc2ncc(F)c(Nc3ccc4c(n3)N(COP(=O)(O)O)C(=O)C(C)(C)O4)n2)cc(OC)c1OC [Fostamatinib] + C=CC(=O)N1CCN(c2nc(=O)n(-c3c(C)ccnc3C(C)C)c3nc(-c4c(O)cccc4F)c(F)cc23)[C@@H](C)C1 [sotorasib]
- combination cScore with sotorasib (NCI-H2122): 23.3
- combination cScore with sotorasib (SW837): 23.7
- combination cScore with sotorasib (NCI-H358): 8.55

Compound: C[C@H](Nc1ccc2c(c1)OCCn1cc(N3C(=O)OC[C@H]3C(F)F)nc1-2)C(N)=O [GDC-0077] + C=CC(=O)N1CCN(c2nc(=O)n(-c3c(C)ccnc3C(C)C)c3nc(-c4c(O)cccc4F)c(F)cc23)[C@@H](C)C1 [sotorasib]
- combination cScore with sotorasib (NCI-H2122): 25.4
- combination cScore with sotorasib (SW837): 18.3
- combination cScore with sotorasib (NCI-H358): 3.7

Compound: CCCc1cc(C)[nH]c(=O)c1CNC(=O)c1cc(-c2ccnc(N3CCN(C)CC3)c2)cc2c1cnn2C(C)C [GSK343] + C=CC(=O)N1CCN(c2nc(=O)n(-c3c(C)ccnc3C(C)C)c3nc(-c4c(O)cccc4F)c(F)cc23)[C@@H](C)C1 [sotorasib]
- combination cScore with sotorasib (NCI-H2122): 8.7
- combination cScore with sotorasib (SW837): 9.75
- combination cScore with sotorasib (NCI-H358): 2.88

Compound: COc1cc2ncnc(Nc3ccc(F)c(Cl)c3)c2cc1OCCCN1CCOCC1 [Gefitinib] + C=CC(=O)N1CCN(c2nc(=O)n(-c3c(C)ccnc3C(C)C)c3nc(-c4c(O)cccc4F)c(F)cc23)[C@@H](C)C1 [sotorasib]
- combination cScore with sotorasib (NCI-H2122): 26.4
- combination cScore with sotorasib (SW837): 23.2
- combination cScore with sotorasib (NCI-H358): 8.62

Compound: CCS(=O)(=O)Nc1ccc2c(c1)/C(=C(/Nc1ccc(CN3CCCCC3)cc1)c1ccccc1)C(=O)N2 [Hesperadin] + C=CC(=O)N1CCN(c2nc(=O)n(-c3c(C)ccnc3C(C)C)c3nc(-c4c(O)cccc4F)c(F)cc23)[C@@H](C)C1 [sotorasib]
- combination cScore with sotorasib (NCI-H2122): 12.3
- combination cScore with sotorasib (SW837): 5.4
- combination cScore with sotorasib (NCI-H358): 4.25

Compound: O=C(O)CNC(=O)c1c(O)c2ccccc2n(Cc2ccccc2)c1=O [IOX2] + C=CC(=O)N1CCN(c2nc(=O)n(-c3c(C)ccnc3C(C)C)c3nc(-c4c(O)cccc4F)c(F)cc23)[C@@H](C)C1 [sotorasib]
- combination cScore with sotorasib (NCI-H2122): 21.3
- combination cScore with sotorasib (SW837): 17.9
- combination cScore with sotorasib (NCI-H358): 0.66

Compound: C[C@H](NC(=O)c1c(N)nn2cccnc12)c1cc2cccc(C#Cc3cnn(C)c3)c2c(=O)n1-c1ccccc1 [IPI-549] + C=CC(=O)N1CCN(c2nc(=O)n(-c3c(C)ccnc3C(C)C)c3nc(-c4c(O)cccc4F)c(F)cc23)[C@@H](C)C1 [sotorasib]
- combination cScore with sotorasib (NCI-H2122): 15.1
- combination cScore with sotorasib (SW837): 4.45
- combination cScore with sotorasib (NCI-H358): 2.47

Compound: C=CC(=O)N1CCC[C@@H](n2nc(-c3ccc(Oc4ccccc4)cc3)c3c(N)ncnc32)C1 [Ibrutinib] + C=CC(=O)N1CCN(c2nc(=O)n(-c3c(C)ccnc3C(C)C)c3nc(-c4c(O)cccc4F)c(F)cc23)[C@@H](C)C1 [sotorasib]
- combination cScore with sotorasib (NCI-H2122): 27.9
- combination cScore with sotorasib (SW837): 13.3
- combination cScore with sotorasib (NCI-H358): 14.4

Compound: CS(=O)(=O)CCNCc1ccc(-c2ccc3ncnc(Nc4ccc(OCc5cccc(F)c5)c(Cl)c4)c3c2)o1 [Lapatinib] + C=CC(=O)N1CCN(c2nc(=O)n(-c3c(C)ccnc3C(C)C)c3nc(-c4c(O)cccc4F)c(F)cc23)[C@@H](C)C1 [sotorasib]
- combination cScore with sotorasib (NCI-H2122): 28.9
- combination cScore with sotorasib (SW837): 15.4
- combination cScore with sotorasib (NCI-H358): 12.8

Compound: Cc1c(CN2CCC(Nc3ncnc4sc(CC(F)(F)F)cc34)CC2)ccc2[nH]c(C#N)cc12 [MI-463] + C=CC(=O)N1CCN(c2nc(=O)n(-c3c(C)ccnc3C(C)C)c3nc(-c4c(O)cccc4F)c(F)cc23)[C@@H](C)C1 [sotorasib]
- combination cScore with sotorasib (NCI-H2122): 10.2
- combination cScore with sotorasib (SW837): 12.3
- combination cScore with sotorasib (NCI-H358): 2.97

Compound: NC1(c2ccc(-c3nc4ccn5c(=O)[nH]nc5c4cc3-c3ccccc3)cc2)CCC1 [MK-2206] + C=CC(=O)N1CCN(c2nc(=O)n(-c3c(C)ccnc3C(C)C)c3nc(-c4c(O)cccc4F)c(F)cc23)[C@@H](C)C1 [sotorasib]
- combination cScore with sotorasib (NCI-H2122): 15.5
- combination cScore with sotorasib (SW837): 18
- combination cScore with sotorasib (NCI-H358): 1.28

Compound: CC(C)n1nc(-c2ccc3oc(N)nc3c2)c2c(N)ncnc21 [MLN-0128] + C=CC(=O)N1CCN(c2nc(=O)n(-c3c(C)ccnc3C(C)C)c3nc(-c4c(O)cccc4F)c(F)cc23)[C@@H](C)C1 [sotorasib]
- combination cScore with sotorasib (NCI-H2122): 6.3
- combination cScore with sotorasib (SW837): 15.9
- combination cScore with sotorasib (NCI-H358): 10.3

Compound: O=C1c2c(O)ccc(O)c2C(=O)c2c(NCCNCCO)ccc(NCCNCCO)c21 [Mitoxantrone] + C=CC(=O)N1CCN(c2nc(=O)n(-c3c(C)ccnc3C(C)C)c3nc(-c4c(O)cccc4F)c(F)cc23)[C@@H](C)C1 [sotorasib]
- combination cScore with sotorasib (NCI-H2122): 11.3
- combination cScore with sotorasib (SW837): 7.33
- combination cScore with sotorasib (NCI-H358): 1.3

Compound: COc1cc(N2CCC(N3CCN(C)CC3)CC2)ccc1Nc1ncc(Cl)c(Nc2ccccc2S(=O)(=O)C(C)C)n1 [NVP-TAE684] + C=CC(=O)N1CCN(c2nc(=O)n(-c3c(C)ccnc3C(C)C)c3nc(-c4c(O)cccc4F)c(F)cc23)[C@@H](C)C1 [sotorasib]
- combination cScore with sotorasib (NCI-H2122): 14.6
- combination cScore with sotorasib (SW837): 22.3
- combination cScore with sotorasib (NCI-H358): 5.9

Compound: O=C(c1cc(Cc2n[nH]c(=O)c3ccccc23)ccc1F)N1CCN(C(=O)C2CC2)CC1 [Olaparib] + C=CC(=O)N1CCN(c2nc(=O)n(-c3c(C)ccnc3C(C)C)c3nc(-c4c(O)cccc4F)c(F)cc23)[C@@H](C)C1 [sotorasib]
- combination cScore with sotorasib (NCI-H2122): 6.94
- combination cScore with sotorasib (SW837): 8.33
- combination cScore with sotorasib (NCI-H358): 1.2

Compound: C=CC(=O)Nc1cc(Nc2nccc(-c3cn(C)c4ccccc34)n2)c(OC)cc1N(C)CCN(C)C [Osimertinib] + C=CC(=O)N1CCN(c2nc(=O)n(-c3c(C)ccnc3C(C)C)c3nc(-c4c(O)cccc4F)c(F)cc23)[C@@H](C)C1 [sotorasib]
- combination cScore with sotorasib (NCI-H2122): 16.7
- combination cScore with sotorasib (SW837): 15.9
- combination cScore with sotorasib (NCI-H358): 11.6

Compound: O=C(/C=C/N1C[C@H]2C[C@@H]1CN2c1ccccn1)c1ccccc1O [PFI-3] + C=CC(=O)N1CCN(c2nc(=O)n(-c3c(C)ccnc3C(C)C)c3nc(-c4c(O)cccc4F)c(F)cc23)[C@@H](C)C1 [sotorasib]
- combination cScore with sotorasib (NCI-H2122): 15.8
- combination cScore with sotorasib (SW837): -2.6
- combination cScore with sotorasib (NCI-H358): 0.77

Compound: O=C(c1c(F)ccc(NS(=O)(=O)N2CC[C@@H](F)C2)c1F)c1c[nH]c2ncc(-c3cnc(C4CC4)nc3)cc12 [PLX8394] + C=CC(=O)N1CCN(c2nc(=O)n(-c3c(C)ccnc3C(C)C)c3nc(-c4c(O)cccc4F)c(F)cc23)[C@@H](C)C1 [sotorasib]
- combination cScore with sotorasib (NCI-H2122): 24.2
- combination cScore with sotorasib (SW837): 3.79
- combination cScore with sotorasib (NCI-H358): 6.09

Compound: CC(=O)c1c(C)c2cnc(Nc3ccc(N4CCNCC4)cn3)nc2n(C2CCCC2)c1=O [Palbociclib] + C=CC(=O)N1CCN(c2nc(=O)n(-c3c(C)ccnc3C(C)C)c3nc(-c4c(O)cccc4F)c(F)cc23)[C@@H](C)C1 [sotorasib]
- combination cScore with sotorasib (NCI-H2122): 8.77
- combination cScore with sotorasib (SW837): 38.3
- combination cScore with sotorasib (NCI-H358): 3.92

Compound: Cc1ccc(C(=O)Nc2ccc(CN3CCN(C)CC3)c(C(F)(F)F)c2)cc1C#Cc1cnc2cccnn12 [Ponatinib] + C=CC(=O)N1CCN(c2nc(=O)n(-c3c(C)ccnc3C(C)C)c3nc(-c4c(O)cccc4F)c(F)cc23)[C@@H](C)C1 [sotorasib]
- combination cScore with sotorasib (NCI-H2122): 19.1
- combination cScore with sotorasib (SW837): 1.65
- combination cScore with sotorasib (NCI-H358): 0.16

Compound: CCc1nc(N)nc(N)c1-c1ccc(Cl)cc1 [Pyrimethamine] + C=CC(=O)N1CCN(c2nc(=O)n(-c3c(C)ccnc3C(C)C)c3nc(-c4c(O)cccc4F)c(F)cc23)[C@@H](C)C1 [sotorasib]
- combination cScore with sotorasib (NCI-H2122): 5.47
- combination cScore with sotorasib (SW837): -4.42
- combination cScore with sotorasib (NCI-H358): -6.53

Compound: CC1(N)CCN(c2cnc(-c3cccc(Cl)c3Cl)c(N)n2)CC1 [SHP099] + C=CC(=O)N1CCN(c2nc(=O)n(-c3c(C)ccnc3C(C)C)c3nc(-c4c(O)cccc4F)c(F)cc23)[C@@H](C)C1 [sotorasib]
- combination cScore with sotorasib (NCI-H2122): 19.1
- combination cScore with sotorasib (SW837): 9.98
- combination cScore with sotorasib (NCI-H358): 7.84
